According to patent US20160206688A1, “METHODS FOR TREATING BACTEREMIA AND OSTEOMYELITIS USING ORITAVANCIN” (THE MEDICINES COMPANY, priority 2013, published 2016):
≈ marks a conversion by molar mass, not a printed value. Read-outs that look alike come from different tables or passages of the source.

Assays:
[1] = tested on: Coagulase-negative staphylococci; experiment: Broth microdilution MIC, European bacteraemia isolates 2010-2012; format: cell-based, coagulase-negative staphylococci (CoNS)
Procedure: A total of 2,904 clinical strains responsible for documented bacteremia among unique hospitalized patients in 38 hospitals in 11 European Union countries. Israel, Russia, Turkey and Ukraine were included in this study (2010-2012). Isolates were submitted to a central monitoring laboratory (JMI Laboratories, North Liberty. Iowa. USA), following previously established protocols. Bacterial species identification was performed by using an automated system (Vitek®2; bioMèrieux, Hazelwood, Mo., USA) or conventional biochemical algorithms, as required.
Isolates were tested for susceptibility by broth microdilution methods following the Clinical and Laboratory Standards Institute (CLSI; M07-A9, 2012) document. Susceptibility testing was performed in cation-adjusted Mueller-Hinton broth (CA-MHB) using dry-form panels manufactured by Thermo Fisher Scientific, formerly TREK Diagnostics Systems/Sensititre (Cleveland. Ohio, USA). These panels provide results equivalent to the CLSI-approved broth microdilution method supplemented with 0.002% polysorbate-80.
Quality assurance was performed by concurrent testing of CLSI-recommended (M100-S23, 2013) strains: E. faecalis ATCC 29212 and S. aureus ATCC 29213. Interpretation of comparator MIC results was in accordance with published CLSI (M100-S23) and European Committee on Antimicrobial Susceptibility Testing (EUCAST, 2013) criteria.

[2] = Tolerability and laboratory findings in compassionate use subject; format: in vivo, human
Procedure: In response to a compassionate use request, oritavancin was administered to a subject having bacteremia.
The demographics of the subject included the following: […]; […]; […]; weight—190 lb; height—70 inches. The subject's medical history included the following: CAD s/p CABG 8/08 (SVG to OM1, SVG to PDA); severe AS s/p bioprosthetic AVR 8/08; lumbar discectomy and fusion February 2011, hardware removed Jan. 11, 2013; PVD S/p bilateral CEA 2010; CKD s/p renal artery stenting December 2011, Baseline Cr approx 3.0 s; HTN; CHF; HLD; mild pulmonary fibrosis; BPH; GERD; arthritis.
Treatment as of Feb. 8, 2013: oritavancin (1200 mg IV, Q2D×3 times, then QW×5 times).

[3] = CoNS, Methicillin-resistant (509), at ≦0.008 mg/L
[4] = CoNS, Methicillin-susceptible (137), at ≦0.008 mg/L
[5] = CoNS, Teicoplanin MIC ≧8 mg/L (72), at ≦0.008 mg/L
[6] = Table 1, CoNS, Methicillin-resistant (509)
[7] = Table 1, CoNS, Methicillin-susceptible (137)
[8] = Table 2, Coagulase-negative staphylococci (646)
[9] = read-out: cumulative % inhibited at MIC

## CN[C@H](CC(C)C)C(=O)N[C@H]1C(=O)N[C@@H](CC(N)=O)C(=O)N[C@H]2C(=O)N[C@H]3C(=O)N[C@H](C(=O)N[C@H](C(=O)O)c4cc(O)cc(O)c4-c4cc3ccc4O)[C@H](O[C@H]3C[C@](C)(N)[C@@H](O)[C@H](C)O3)c3ccc(c(Cl)c3)Oc3cc2cc(c3O[C@@H]2O[C@H](CO)[C@@H](O)[C@H](O)[C@H]2O[C@H]2C[C@](C)(NCc3ccc(-c4ccc(Cl)cc4)cc3)[C@@H](O)[C@H](C)O2)Oc2ccc(cc2Cl)[C@H]1O [Oritavancin, N-(4-(4-chlorophenyl)benzyl)A82846B]
[1]; CoNS with decreased susceptibility to teicoplanin (MIC≧8 mg/L), read-out: highest MIC value
  MIC: 0.25 µg/mL (≈ 0.139 µM)
[1]; CoNS, Methicillin-resistant (509), at 0.015 mg/L
  Number inhibited at MIC: 77
[1]; CoNS, Methicillin-resistant (509), at 0.03 mg/L
  Number inhibited at MIC: 181
[1]; CoNS, Methicillin-resistant (509), at 0.06 mg/L
  Number inhibited at MIC: 114
[1]; CoNS, Methicillin-resistant (509), at 0.12 mg/L
  Number inhibited at MIC: 33
[1]; CoNS, Methicillin-resistant (509), at 0.25 mg/L
  Number inhibited at MIC: 4
[1]; [3]
  Number inhibited at MIC: 100
  cumulative % inhibited at MIC: 19.7%
[1]; CoNS, Methicillin-susceptible (137), at 0.015 mg/L
  Number inhibited at MIC: 28
[1]; CoNS, Methicillin-susceptible (137), at 0.03 mg/L
  Number inhibited at MIC: 50
[1]; CoNS, Methicillin-susceptible (137), at 0.06 mg/L
  Number inhibited at MIC: 21
[1]; CoNS, Methicillin-susceptible (137), at 0.12 mg/L
  Number inhibited at MIC: 1
[1]; [4]
  Number inhibited at MIC: 37
  cumulative % inhibited at MIC: 27.0%
[1]; CoNS, Teicoplanin MIC ≧8 mg/L (72), at 0.015 mg/L
  Number inhibited at MIC: 1
[1]; CoNS, Teicoplanin MIC ≧8 mg/L (72), at 0.015 mg/L, read-out: cumulative % inhibited at MIC
  inhibition at 0.015 µg/mL: 2.8%
[1]; CoNS, Teicoplanin MIC ≧8 mg/L (72), at 0.03 mg/L
  Number inhibited at MIC: 15
[1]; CoNS, Teicoplanin MIC ≧8 mg/L (72), at 0.03 mg/L, read-out: cumulative % inhibited at MIC
  inhibition at 0.03 µg/mL: 23.6%
[1]; CoNS, Teicoplanin MIC ≧8 mg/L (72), at 0.06 mg/L
  Number inhibited at MIC: 36
[1]; CoNS, Teicoplanin MIC ≧8 mg/L (72), at 0.06 mg/L, read-out: cumulative % inhibited at MIC
  inhibition at 0.06 µg/mL: 73.6%
[1]; CoNS, Teicoplanin MIC ≧8 mg/L (72), at 0.12 mg/L
  Number inhibited at MIC: 15
[1]; CoNS, Teicoplanin MIC ≧8 mg/L (72), at 0.12 mg/L, read-out: cumulative % inhibited at MIC
  inhibition at 0.12 µg/mL: 94.4%
[1]; CoNS, Teicoplanin MIC ≧8 mg/L (72), at 0.25 mg/L
  Number inhibited at MIC: 4
[1]; CoNS, Teicoplanin MIC ≧8 mg/L (72), at 0.25 mg/L, read-out: cumulative % inhibited at MIC
  inhibition at 0.25 µg/mL: 100%
[1]; [5]
  Number inhibited at MIC: 1
  cumulative % inhibited at MIC: 1.4%
[1]; [6]
  MIC50: 0.03 µg/mL (≈ 0.0167 µM)
  MIC90: 0.06 µg/mL (≈ 0.0335 µM)
[1]; [7]
  MIC50: 0.03 µg/mL (≈ 0.0167 µM)
  MIC90: 0.06 µg/mL (≈ 0.0335 µM)
[1]; Table 1, CoNS, Teicoplanin MIC ≧8 mg/L (72), read-out: MIC 50%
  MIC50: 0.06 µg/mL (≈ 0.0335 µM)
[1]; Table 1, CoNS, Teicoplanin MIC ≧8 mg/L (72), read-out: MIC 90%
  MIC90: 0.12 µg/mL (≈ 0.0669 µM)
[1]; [8]
  MIC50: 0.03 µg/mL (≈ 0.0167 µM)
  MIC90: 0.06 µg/mL (≈ 0.0335 µM)
  MIC Range: ≦0.008-0.25 mg/L
[1]; [9]
  inhibition at 0.015 µg/mL: 41.8%
  inhibition at 0.03 µg/mL: 79.4%
  inhibition at 0.06 µg/mL: 96.7%
  inhibition at 0.12 µg/mL: 100%
[1]; read-out: cumulative % inhibited at MIC, CoNS, Methicillin-resistant (509), at 0.015 mg/L
  inhibition at 0.015 µg/mL: 34.8%
[1]; read-out: cumulative % inhibited at MIC, CoNS, Methicillin-resistant (509), at 0.03 mg/L
  inhibition at 0.03 µg/mL: 70.3%
[1]; read-out: cumulative % inhibited at MIC, CoNS, Methicillin-resistant (509), at 0.06 mg/L
  inhibition at 0.06 µg/mL: 92.7%
[1]; read-out: cumulative % inhibited at MIC, CoNS, Methicillin-resistant (509), at 0.12 mg/L
  inhibition at 0.12 µg/mL: 99.2%
[1]; read-out: cumulative % inhibited at MIC, CoNS, Methicillin-resistant (509), at 0.25 mg/L
  inhibition at 0.25 µg/mL: 100%
[1]; read-out: cumulative % inhibited at MIC, CoNS, Methicillin-susceptible (137), at 0.015 mg/L
  inhibition at 0.015 µg/mL: 47.5%
[1]; read-out: cumulative % inhibited at MIC, CoNS, Methicillin-susceptible (137), at 0.03 mg/L
  inhibition at 0.03 µg/mL: 83.9%
[1]; read-out: cumulative % inhibited at MIC, CoNS, Methicillin-susceptible (137), at 0.06 mg/L
  inhibition at 0.06 µg/mL: 99.3%
[1]; read-out: cumulative % inhibited at MIC, CoNS, Methicillin-susceptible (137), at 0.12 mg/L
  inhibition at 0.12 µg/mL: 100%
[2]; last post-dose, reported Feb. 11, 2013, pre-treatment levels 2.8 to 3
  creatinine: 3.1
[2]; reported Feb. 20, 2013
  tolerability: tolerating oritavancin well without the adverse events from their previous antibiotics
[2]; reported Feb. 20, 2013, went down from 3.1
  creatinine: 1.6
